Assay results: ChEMBL document CHEMBL6096739, “The Myxobacterial Genus Archangium: A Prolific and Underexploited Source of Bioactive Secondary Metabolites” (J Med Chem, 2025)
Values after ≈ are worked out from the molar mass of the structure shown. Numbered stars: 1 amine (or outer) side, 2 acyl side, 3 side chain; on linkers, the order of the positions; unused ones are H or OH. Square brackets hold non-standard residues; d marks the D form. Peptide text beside a SMILES is read from it. X1 = COc1cccc2[nH]c(C)c(C[C@H](N[*:1])C(=O)[*:2])c12; dAla(ψthiazole) = C[C@@H](N[*:1])c1nc(C(=O)[*:2])cs1; Trp(4-OMe) = COc1cccc2[nH]cc(C[C@H](N)C(=O)O)c12; X2 = O=C(c1csc([C@@H](CO)N[*:1])n1)[*:2]; GlyΨ(Thz) = O=C(c1csc(CN[*:1])n1)[*:2]; dAbu = CC[C@@H](N)C(=O)O; Dha = C=C(N)C(=O)O; Sar = CNCC(=O)O

How the values were obtained:
KB = assay: Cytotoxicity against human KB cells assessed as reduction in cell viability measured after 72 hrs by MTT assay; format: functional, cell-based
U-937 = assay: Cytotoxicity activity against human U-937 cells assessed as reduction in cell viability measured after 24 hrs by CCK-8 assay; format: functional, cell-based
[1] = Cytotoxicity against mouse L929 cells assessed reduction in cell viability incubated for 24 hrs by MTT assay; format: toxicity, cell-based
Clostridium perfringens = assay: Antibacterial activity against Clostridium perfringens assessed as bacterial growth inhibition after 24 hrs by microdilution method; format: functional
[2] = test system: Metschnikowia pulcherrima; assay: Antifungal activity against Metschnikowia pulcherrima DSM 70321; format: functional
[3] = Toxicity in po dosed rat assessed as lethal dose; format: organism-based; design: unit not given here; conditions: in vivo
Botrytis cinerea = assay: Antifungal activity against Botrytis cinerea; format: functional
[4] = test system: Globisporangium debaryanum; assay: Antifungal activity against Pythium debaryanum DSM 62946; format: functional
Pseudomonas aeruginosa = assay: Antibacterial activity against Pseudomonas aeruginosa ATCC 27853 assessed as bacterial growth inhibition; format: functional, organism-based
HCT-116 = assay: Cytotoxicity against human HCT-116 cells assessed as reduction in cell growth measured after 72 hrs by MTT assay; format: functional, cell-based; conditions: HCT-116, 72 h

C=C1NC(=O)[C@@H](C)NC(=O)CNC(=O)[C@H](Cc2c(C)[nH]c3cccc(OC)c23)NC(=O)[C@H](Cc2c[nH]c3ccccc23)NC(=O)c2csc(n2)[C@@H](C)NC(=O)CN(C)C1=O (cyclo(W[X1]G[dA][Dha][Sar][dAla(ψthiazole)]))
IC50 (KB): 5 nM

CC[C@H](C)[C@H](NC(=O)[C@H]1CCCCN1C)C(=O)N(COC(C)=O)[C@H](C[C@@H](OC(C)=O)c1nc(C(=O)N[C@@H](Cc2ccccc2)C[C@H](C)C(=O)O)cs1)C(C)C
IC50 (U-937; Homo sapiens, U-937, 24 h): 0.005 nM

C=C1NC(=O)[C@@H](CC)NC(=O)CNC(=O)[C@H](Cc2c[nH]c3cccc(OC)c23)NC(=O)[C@H](Cc2c[nH]c3ccccc23)NC(=O)c2csc(n2)[C@@H](CO)NC(=O)CN(C)C1=O (cyclo([Dha][Sar][X2]W[Trp(4-OMe)]G[dAbu]))
IC50 (KB): 5 nM

CC1=C(/C=C/C=C\C=C\[C@@H](C)[C@@H](O)/C(C)=C/CC(C)C)OC(C)(O)C1=O (some centres not stated)
IC50 at 24 h [1]: 1000 nM

C=C(NC(=O)/C(C)=C/C=C\CCCCCC(C)C)C(=O)N/C(=C\OC)C(=O)OC
IC50 at 24 h [1]: 3100 nM

C=C/C=C(\C)[C@@H](O)CC[C@@H](C)/C=C/[C@@H]1CC[C@@H](C)C(=O)CC(=O)N[C@@H](C)CCC(=O)[C@@H](C)[C@H](O)[C@@H](C)/C=C(\C)C(=O)O1
MIC (Clostridium perfringens): 0.78 µg/mL (≈ 1.33 µM)

O/N=C/Cc1c[nH]c2ccccc12
MIC [2]: < 1 µg/mL

C/C=C1\NC(=O)[C@H]2CSC(=N2)[C@@H]2C[C@@H](C)N2C(=O)[C@@H](CC(C)C)NC(=O)[C@H](C)NC(=O)[C@@H](O)COC(=O)[C@H](C(C)C)N(C)C(=O)[C@H]([C@@H](C)O)NC(=O)[C@@H]2CCCCN2C1=O
LD50 [3]: 2.3

COC(=O)/C=C(/OC)[C@H](C)[C@H](/C=C/c1csc(C2CSC(C3(C)CO3)=N2)n1)OC (some centres not stated)
MIC (Botrytis cinerea): 0.04 µg/mL (≈ 0.0912 µM)
MIC [4]: 0.0947 µM (≈ 0.0415 µg/mL)
MIC [2]: 0.04 µg/mL (≈ 0.0912 µM)

C=C1NC(=O)[C@@H](CC)NC(=O)CNC(=O)[C@H](Cc2c(C)[nH]c3cccc(OC)c23)NC(=O)[C@H](Cc2c[nH]c3ccccc23)NC(=O)c2csc(n2)[C@@H](C)NC(=O)CN(C)C1=O (cyclo(W[X1]G[dAbu][Dha][Sar][dAla(ψthiazole)]))
IC50 (KB): 5 nM

COC(=O)/C=C(/OC)[C@H](C)[C@H](/C=C/c1csc(C2CSC(C(C)C)=N2)n1)OC (some centres not stated)
MIC (Botrytis cinerea): 0.04 µg/mL (≈ 0.0942 µM)
MIC [4]: 0.0947 µM (≈ 0.0402 µg/mL)
MIC [2]: 0.04 µg/mL (≈ 0.0942 µM)

C=C1NC(=O)[C@@H](CC)NC(=O)CNC(=O)[C@H](Cc2c[nH]c3cccc(OC)c23)NC(=O)[C@H](Cc2c[nH]c3ccccc23)NC(=O)c2csc(n2)[C@@H](C)NC(=O)CN(C)C1=O (cyclo([Dha][Sar][dAla(ψthiazole)]W[Trp(4-OMe)]G[dAbu]))
IC50 (Pseudomonas aeruginosa): 0.05 µg/mL (≈ 0.0596 µM)
IC50 (KB): 5 nM

CCC(=O)OCN(C(=O)[C@@H](NC(=O)[C@H]1CCCCN1C)[C@@H](C)CC)[C@H](C[C@@H](OC(C)=O)c1nc(C(=O)N[C@@H](Cc2ccc(O)cc2)C[C@H](C)C(=O)O)cs1)C(C)C
IC50 (U-937; Homo sapiens, U-937, 24 h): 0.005 nM

CC[C@H](C)[C@H](NC(=O)[C@H]1CCCCN1C)C(=O)N(COC(=O)CC(C)C)[C@H](C[C@@H](OC(C)=O)c1nc(C(=O)N[C@@H](Cc2ccc(O)cc2)C[C@H](C)C(=O)O)cs1)C(C)C [TUBULYSIN-A]
IC50 (U-937; u-937): 0.005 nM

C=C1NC(=O)[C@@H](C)NC(=O)CNC(=O)[C@H](Cc2c[nH]c3cccc(OC)c23)NC(=O)[C@H](Cc2c[nH]c3ccccc23)NC(=O)c2csc(n2)[C@@H](CO)NC(=O)CN(C)C1=O (cyclo([Dha][Sar][X2]W[Trp(4-OMe)]G[dA]))
IC50 (KB): 5 nM

CC1=C(C[C@H](O)/C=C\C=C\[C@@H](C)[C@@H](O)/C(C)=C/CC(C)C)OC(C)(O)C1=O (some centres not stated)
IC50 at 24 h [1]: 1000 nM

CC[C@H](C)[C@H](NC(=O)[C@H]1CCCCN1C)C(=O)N(COC(=O)C=C(C)C)[C@H](C[C@@H](OC(C)=O)c1nc(C(=O)N[C@@H](Cc2ccc(O)cc2)C[C@H](C)C(=O)O)cs1)C(C)C
IC50 (U-937; Homo sapiens, U-937, 24 h): 0.005 nM

CCCC(=O)OCN(C(=O)[C@@H](NC(=O)[C@H]1CCCCN1C)[C@@H](C)CC)[C@H](C[C@@H](OC(C)=O)c1nc(C(=O)N[C@@H](Cc2ccccc2)C[C@H](C)C(=O)O)cs1)C(C)C
IC50 (U-937; Homo sapiens, U-937, 24 h): 0.005 nM

C=C(C)C1=NC(c2nc(/C=C/[C@H](OC)[C@@H](C)/C(=C\C(=O)OC)OC)cs2)CS1 (some centres not stated)
MIC (Botrytis cinerea): 0.04 µg/mL (≈ 0.0947 µM)
MIC [4]: 0.0947 µM (≈ 0.04 µg/mL)
MIC [2]: 0.04 µg/mL (≈ 0.0947 µM)

C=C(C)c1nc(-c2nc(/C=C/[C@H](OC)[C@@H](C)/C(=C\C(=O)OC)OC)cs2)cs1
MIC (Botrytis cinerea): 0.04 µg/mL (≈ 0.0951 µM)
MIC [4]: 0.0947 µM (≈ 0.0398 µg/mL)
MIC [2]: 0.04 µg/mL (≈ 0.0951 µM)

OCc1ccnc2ccccc12
MIC [2]: < 1 µg/mL

CC[C@H](C)[C@H](NC(=O)[C@H]1CCCCN1C)C(=O)N(COC(C)=O)[C@H](C[C@@H](OC(C)=O)c1nc(C(=O)N[C@@H](Cc2ccc(O)cc2)C[C@H](C)C(=O)O)cs1)C(C)C
IC50 (U-937; Homo sapiens, U-937, 24 h): 0.005 nM

O=C(CO)c1c[nH]c2ccccc12
MIC [2]: < 1 µg/mL

C/C=C1/NC(=O)[C@@H]2CSC(=N2)[C@@H]2CCCN2C(=O)[C@@H](CC(C)C)NC(=O)[C@H](C)NC(=O)[C@@H](O)COC(=O)[C@H](C(C)C)N(C)C(=O)[C@H]([C@@H](C)O)NC(=O)[C@@H]2CCCN2C1=O
LD50 [3]: 2.3

COCC(C)C1=NC(c2nc(/C=C/[C@H](OC)[C@@H](C)/C(=C\C(=O)OC)OC)cs2)CS1 (some centres not stated)
MIC (Botrytis cinerea): 0.04 µg/mL (≈ 0.088 µM)
MIC [4]: 0.0947 µM (≈ 0.0431 µg/mL)
MIC [2]: 0.04 µg/mL (≈ 0.088 µM)

O=C(O)c1ccnc2ccccc12
MIC [2]: < 1 µg/mL

CCCC(=O)OCN(C(=O)[C@@H](NC(=O)[C@H]1CCCCN1C)[C@@H](C)CC)[C@H](C[C@@H](OC(C)=O)c1nc(C(=O)N[C@@H](Cc2ccc(O)cc2)C[C@H](C)C(=O)O)cs1)C(C)C [TUBULYSIN B]
IC50 (U-937; Homo sapiens, U-937, 24 h): 0.005 nM

N#CCc1c[nH]c2ccccc12
MIC [2]: < 1 µg/mL

CC[C@H](C)[C@H](NC(=O)[C@H]1CCCCN1C)C(=O)N(COC(=O)CC(C)C)[C@H](C[C@@H](OC(C)=O)c1nc(C(=O)N[C@@H](Cc2ccccc2)C[C@H](C)C(=O)O)cs1)C(C)C [TUBULYSIN D]
IC50 (U-937; Homo sapiens, U-937, 24 h): 0.005 nM
IC50 (HCT-116): 0.003 nM

C=C1NC(=O)[C@@H](C)NC(=O)CNC(=O)[C@H](Cc2c[nH]c3cccc(OC)c23)NC(=O)[C@H](Cc2c[nH]c3ccccc23)NC(=O)c2csc(n2)[C@@H](C)NC(=O)CN(C)C1=O (cyclo(W[Trp(4-OMe)]G[dA][Dha][Sar][dAla(ψthiazole)]))
IC50 (KB): 5 nM

COC(=O)/C=C(/OC)[C@H](C)[C@H](/C=C/c1csc(-c2csc(C(C)=O)n2)n1)OC
MIC (Botrytis cinerea): 0.04 µg/mL (≈ 0.0947 µM)
MIC [4]: 0.0947 µM (≈ 0.04 µg/mL)
MIC [2]: 0.04 µg/mL (≈ 0.0947 µM)

C/C=C1/NC(=O)[C@@H]2CSC(=N2)[C@@H]2CCCN2C(=O)[C@@H](CC(C)C)NC(=O)[C@H](C)NC(=O)[C@@H](O)COC(=O)[C@H](C(C)C)N(C)C(=O)[C@H]([C@@H](C)O)NC(=O)[C@@H]2CCCCN2C1=O
LD50 [3]: 2.3

O/N=C\c1ccnc2ccccc12
MIC [2]: < 1 µg/mL

CCC(=O)OCN(C(=O)[C@@H](NC(=O)[C@H]1CCCCN1C)[C@@H](C)CC)[C@H](C[C@@H](OC(C)=O)c1nc(C(=O)N[C@@H](Cc2ccccc2)C[C@H](C)C(=O)O)cs1)C(C)C
IC50 (U-937; Homo sapiens, U-937, 24 h): 0.005 nM

C/C=C1\NC(=O)[C@H]2CSC(=N2)[C@@H]2C[C@@H](C)N2C(=O)[C@@H](CC(C)C)NC(=O)[C@H](C)NC(=O)[C@@H](O)COC(=O)[C@H](C(C)C)N(C)C(=O)[C@H]([C@@H](C)O)NC(=O)[C@@H]2CCCN2C1=O
LD50 [3]: 2.3

C=C(NC(=O)/C(C)=C/C=C\CCCCCCC)C(=O)N/C(=C\OC)C(=O)OC
IC50 at 24 h [1]: 3100 nM

C/C1=C\C=C=CCCC/C=C/[C@H]2O[C@@H](C(=O)O[C@H](C)[C@H]1O)[C@@H](O)[C@@H]2O
MIC (Clostridium perfringens): 2.5 µg/mL (≈ 7.13 µM)

O=Cc1ccnc2ccccc12
MIC [2]: < 1 µg/mL

C=C(NC(=O)/C(C)=C/C=C\CCCCC(C)C)C(=O)N/C(=C\OC)C(=O)OC
IC50 at 24 h [1]: 3100 nM

C=C1NC(=O)[C@@H](C)NC(=O)CNC(=O)[C@H](Cc2c[nH]c3cccc(OC)c23)NC(=O)[C@H](Cc2c[nH]c3ccccc23)NC(=O)c2csc(n2)CNC(=O)CN(C)C1=O (cyclo([Dha][Sar][GlyΨ(Thz)]W[Trp(4-OMe)]G[dA]))
IC50 (KB): 5 nM

COC(=O)/C=C(/OC)[C@H](C)[C@H](/C=C/c1csc(-c2csc(C3(C)CO3)n2)n1)OC (some centres not stated)
MIC (Botrytis cinerea): 0.04 µg/mL (≈ 0.0916 µM)
MIC [4]: 0.0947 µM (≈ 0.0413 µg/mL)
MIC [2]: 0.04 µg/mL (≈ 0.0916 µM)
